Assay results taken from PMC10653547, “Synergistic effect of two antimicrobial peptides, BP203 and MAP-0403 J-2 with conventional antibiotics against colistin-resistant Escherichia coli and Klebsiella pneumoniae clinical isolates” (PLOS ONE, 2023).
“Also recorded” adds a separate entry of the source. Like-named read-outs stand apart in the source and are kept apart here. No end group written: not given here.

Experiments:
sheep red blood cells = test: Hemolytic activity assay; type: cell-based; conditions: at concentrations as high as 200 μg/mL
Description: Sheep erythrocytes were employed to assess the hemolytic activity of BP203 and MAP-0403 J-2, following previously described with some modifications. Briefly, defibrinated sheep red blood cells (sRBCs) were centrifuged at 1,000× g, 4°C for 10 min. The packed sRBCs underwent three times washes with phosphate buffer saline (PBS), at pH 7.4, and were subsequently suspended in PBS to achieve a concentration of 4% (v/v). […] Following an incubation period of 1 h at 37°C, the mixtures were centrifuged at room temperature, 1,000× g for 10 min. The supernatants were collected and transferred to a 96-well microplate. Next, absorbance measurement was taken at 540 nm using a microplate reader (Tecan Group, Zurich, Switzerland). Blank, negative and positive controls were established using sRBCs incubated with PBS alone, BSA solution, and 0.1% Triton X-100, respectively. […] The percentage of hemolytic activity was calculated with the following equation: Hemolysis (%) = {(Sample absorbance—PBS absorbance)/(0.1% Triton X-100 absorbance—PBS absorbance)} × 100.

[1] = cited from earlier work
Description: The stability of AMPs is crucial for storage and applications. Temperature and pH are critical parameters impacting AMP stability. In addition, the good stability of AMPs to physiological salts and serum has been considered a desirable property for clinical applications. In this study, BP203 and MAP-0403 J-2 retained antibacterial activity under elevated temperatures, various pH conditions, and in the presence of physiological salts and serum environment. […] The hemolytic activity of BP203 at 150 μM (~300 μg/mL) wa ...

[2] = system: MRC-5 (CCL-171) normal lung fibroblast cells; test: Cytotoxicity assay using MTT; type: cell-based, human; conditions: for Cell viability at highest concentration: 200 μg/mL, 24 h; for IC50: 24 h exposure
Description: MRC-5 (CCL-171) cell line, a representative of normal lung fibroblast cells, was used to investigate the cytotoxic effects of two AMPs, BP203 and MAP-0403 J-2. The cells were grown in Dulbecco’s Modified Eagle Medium (DMEM, Cytiva Life Sciences, Marlborough, MA, USA), supplemented with 10% fetal bovine serum (FBS), 1% penicillin (10,000 U/mL) and streptomycin (10,000 μg/mL) (Gibco, Waltham, MA, USA). 2×10^4 cells were seeded into each well of a 96-well plate and allowed to adhere for 24 h. Then, these cells were subjected to exposure to a medium containing a prepared two-fold serial dilution of BP203 or MAP-0403 J-2. […] 3-(4,5-Dimethylthiazol-2-yl)-2,5-Diphenyltetrazolium Bromide (MTT) was introduced into each well to achieve a concentration of 0.5 mg/mL followed by 4 h. incubation. Subsequently, formazan crystals were dissolved through the addition of 100 μL of a solubilizing solution composed of 10% SDS in 0.1 N HCl and the developed color was measured using a microtiter plate reader at an optical density (OD) of 570 nm. Cell viability was calculated as follows: (ODsample/ODcontrol) × 100.

Row | Compound | Hemolysis (in words) (sheep red blood cells) | Hemolytic activity ([1]; at 150 μM (~300 μg/mL)) [%] | Cell viability at highest concentration [2] [%] | IC50 [2] [µg/mL] | Hemolytic activity ([1]; at 100 μM (~678 μg/mL)) [%]
1 | CC[C@H](C)[C@H](NC(=O)[C@H](CCCCN)NC(=O)[C@H](CCCCN)NC(=O)[C@H](Cc1ccccc1)NC(=O)[C@H](CC(C)C)NC(=O)[C@H](CCCCN)NC(=O)[C@@H](N)CCCCN)C(=O)N[C@@H](CC(C)C)C(=O)N[C@@H](CCCNC(=N)N)C(=O)N[C@@H](Cc1ccc(O)cc1)C(=O)N[C@@H](CC(C)C)C(N)=O [BP203] | negligible hemolysis; also recorded: no hemolytic activity | 31 | 56.01 | > 200 | –
2 | KWLRRPWRRWR-NH2 [MAP-0403 J-2] | negligible hemolysis; also recorded: no hemolytic activity | – | 73.43 | > 200 | 3.4
